# Experimental data taken from ChEMBL document CHEMBL1201861, “Genomics of Drug Sensitity in Cancer screening data, Wellcome Trust Sanger Institute”.
# Experiments:
# Assay in all cases: cells
# Assay type in all cases: functional, cell-based, Homo sapiens
# A3-KAW = details: Homo sapiens, A3-KAW;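 also: growth inhibition of human A3-KAW cells, read out with a cell viability assay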
# Description: SANGER: Inhibition of human A3-KAW cell growth in a cell viability assay.
# NCI-H526 = details: Homo sapiens, NCI-H526;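 also: growth inhibition of the human NCI-H526 cell line, measured by a cell viability assay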
# Description: SANGER: Inhibition of human NCI-H526 cell growth in a cell viability assay.
# KGN = details: Homo sapiens, KGN;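 also: growth inhibition of KGN cells, read out with a cell viability assay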
# Description: SANGER: Inhibition of human KGN cell growth in a cell viability assay.
# BE-13 = details: Homo sapiens, BE-13;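 also: growth inhibition of human BE-13 cells, measured with a cell viability assay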
# Description: SANGER: Inhibition of human BE-13 cell growth in a cell viability assay.
# NMC-G1 = details: Homo sapiens, NMC-G1;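 also: growth inhibition of the NMC-G1 cell line, measured with a cell viability read-out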
# Description: SANGER: Inhibition of human NMC-G1 cell growth in a cell viability assay.
# EOL1 = details: Homo sapiens, EOL1;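 also: growth inhibition of EoL-1 cells, read out by a cell viability assay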
# Description: SANGER: Inhibition of human EoL-1-cell cell growth in a cell viability assay.
# HH = details: Homo sapiens, HH
# Description: SANGER: Inhibition of human HH cell growth in a cell viability assay.
# IST-SL1 = details: Homo sapiens, IST-SL1;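 also: growth inhibition of human IST-SL1 cells, read out with a cell viability assay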
# Description: SANGER: Inhibition of human IST-SL1 cell growth in a cell viability assay.
# KM12 = details: Homo sapiens, KM12;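 also: KM12 cell growth inhibition, read out with a cell viability assay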
# Description: SANGER: Inhibition of human KM12 cell growth in a cell viability assay.
# Becker = details: Homo sapiens, Becker;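 also: growth inhibition of Becker cells, read out with a cell viability assay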
# Description: SANGER: Inhibition of human Becker cell growth in a cell viability assay.
# ES8 = details: Homo sapiens, ES8;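 also: growth inhibition of human ES8 cells, read out with a cell viability assay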
# Description: SANGER: Inhibition of human ES8 cell growth in a cell viability assay.
# COR-L88 = details: Homo sapiens, COR-L88;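 also: growth inhibition of COR-L88 cells, read out with a cell viability assay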
# Description: SANGER: Inhibition of human COR-L88 cell growth in a cell viability assay.
# TGBC24TKB = details: Homo sapiens, TGBC24TKB;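 also: growth inhibition of human TGBC24TKB cells, read out with a cell viability assay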
# Description: SANGER: Inhibition of human TGBC24TKB cell growth in a cell viability assay.
# KP-N-YS = details: Homo sapiens, KP-N-YS;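 also: cell viability assay measuring inhibition of cell line growth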
# Description: SANGER: Inhibition of human KP-N-YS cell growth in a cell viability assay.
# MMAC-SF = details: Homo sapiens, MMAC-SF;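 also: growth inhibition of human MMAC-SF cells, read out with a cell viability assay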
# Description: SANGER: Inhibition of human MMAC-SF cell growth in a cell viability assay.
# CGTH-W-1 = details: Homo sapiens, CGTH-W-1;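 also: growth inhibition of human CGTH-W-1 cells measured by cell viability assay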
# Description: SANGER: Inhibition of human CGTH-W-1 cell growth in a cell viability assay.
# ML-2 = details: Homo sapiens, ML-2;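 also: growth inhibition of ML-2 cells, measured with a cell viability readout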
# Description: SANGER: Inhibition of human ML-2 cell growth in a cell viability assay.
# NKM-1 = details: Homo sapiens, NKM-1;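 also: growth inhibition of NKM-1 cells, read out with a cell viability assay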
# Description: SANGER: Inhibition of human NKM-1 cell growth in a cell viability assay.
# KY821 = details: Homo sapiens, KY821;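 also: growth inhibition of human KY821 cells, read out by a cell viability assay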
# Description: SANGER: Inhibition of human KY821 cell growth in a cell viability assay.
# KALS-1 = details: Homo sapiens, KALS-1;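 also: growth inhibition of KALS-1 cells, determined with a cell viability assay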
# Description: SANGER: Inhibition of human KALS-1 cell growth in a cell viability assay.
# SK-UT-1 = details: Homo sapiens, SK-UT-1;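 also: growth inhibition of SK-UT-1 cells, measured by a cell viability assay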
# Description: SANGER: Inhibition of human SK-UT-1 cell growth in a cell viability assay.
# LB831-BLC = details: Homo sapiens, LB831-BLC;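 also: growth inhibition of LB831-BLC cells, read out with a cell viability assay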
# Description: SANGER: Inhibition of human LB831-BLC cell growth in a cell viability assay.
# NCI-H1299 = details: Homo sapiens, NCI-H1299;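 also: growth inhibition of human NCI-H1299 cells, read out by a cell viability assay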
# Description: SANGER: Inhibition of human NCI-H1299 cell growth in a cell viability assay.
# KU812 cell line = details: Homo sapiens, KU812;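 also: growth inhibition of KU812 cells, read out with a cell viability assay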
# Description: SANGER: Inhibition of human KU812 cell growth in a cell viability assay.
# SW 962 = details: Homo sapiens, SW 962;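 also: growth inhibition of human SW962 cells, read out by a cell viability assay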
# Description: SANGER: Inhibition of human SW962 cell growth in a cell viability assay.
# LB1047-RCC = details: Homo sapiens, LB1047-RCC;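 also: inhibition of cell growth, determined with a cell viability assay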
# Description: SANGER: Inhibition of human LB1047-RCC cell growth in a cell viability assay.
# GB-1 = details: Homo sapiens, GB-1;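 also: growth of GB-1 cells judged by a viability assay, IC50 marks the concentration inhibiting growth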
# Description: SANGER: Inhibition of human GB-1 cell growth in a cell viability assay.
# VA-ES-BJ = details: Homo sapiens, VA-ES-BJ;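 also: growth inhibition of the VA-ES-BJ cell line, read out by a cell viability assay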
# Description: SANGER: Inhibition of human VA-ES-BJ cell growth in a cell viability assay.
# TE-5 = details: Homo sapiens, TE-5;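 also: inhibition of cell growth, read out by a cell viability assay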
# Description: SANGER: Inhibition of human TE-5 cell growth in a cell viability assay.
# NCI-H1838 = details: Homo sapiens, NCI-H1838;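 also: growth inhibition of NCI-H1838 cells, determined with a cell viability readout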
# Description: SANGER: Inhibition of human NCI-H1838 cell growth in a cell viability assay.
# MHH-NB-11 = details: Homo sapiens, MHH-NB-11;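 also: growth inhibition of human MHH-NB-11 cells, read out by a cell viability assay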
# Description: SANGER: Inhibition of human MHH-NB-11 cell growth in a cell viability assay.
# GI-ME-N = details: Homo sapiens, GI-ME-N;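 also: growth inhibition of human GI-ME-N cells, read out with a cell viability assay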
# Description: SANGER: Inhibition of human GI-ME-N cell growth in a cell viability assay.
# ALL-PO = details: Homo sapiens, ALL-PO;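 also: growth inhibition of ALL-PO cells, read out by a cell viability assay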
# Description: SANGER: Inhibition of human ALL-PO cell growth in a cell viability assay.
# A101D = details: Homo sapiens, A101D;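 also: growth inhibition of the cell line, measured with a viability assay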
# Description: SANGER: Inhibition of human A101D cell growth in a cell viability assay.
# EW-18 = details: Homo sapiens, EW-18;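 also: growth inhibition of EW-18 cells, read out by a cell viability assay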
# Description: SANGER: Inhibition of human EW-18 cell growth in a cell viability assay.
# CCRF-CEM = details: Homo sapiens, CCRF-CEM;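 also: inhibition of CCRF-CEM cell growth, measured by a cell viability assay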
# Description: SANGER: Inhibition of human CCRF-CEM cell growth in a cell viability assay.
# NCI-H1581 = details: Homo sapiens, NCI-H1581;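 also: cell growth inhibition read out by a viability assay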
# Description: SANGER: Inhibition of human NCI-H1581 cell growth in a cell viability assay.
# LB2241-RCC = details: Homo sapiens, LB2241-RCC;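 also: cell viability assay measuring how strongly the cultured human renal carcinoma line is prevented from growing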
# Description: SANGER: Inhibition of human LB2241-RCC cell growth in a cell viability assay.
# MPP-89 = details: Homo sapiens, MPP-89;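 also: growth inhibition of human MPP-89 cells, read out with a cell viability assay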
# Description: SANGER: Inhibition of human MPP-89 cell growth in a cell viability assay.
# SK-PN-DW = details: Homo sapiens, SK-PN-DW;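 also: growth inhibition measured with a viability assay on these cells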
# Description: SANGER: Inhibition of human SK-PN-DW cell growth in a cell viability assay.
# KLE = details: Homo sapiens, KLE;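 also: growth inhibition of human KLE cells, read out with a cell viability assay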
# Description: SANGER: Inhibition of human KLE cell growth in a cell viability assay.
# D-392MG = details: Homo sapiens, D-392MG
# K562 = details: Homo sapiens, K562
# Description: SANGER: Inhibition of human K-562 cell growth in a cell viability assay.
# ONS-76 = details: Homo sapiens, ONS-76;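 also: growth inhibition of human ONS-76 cells, read out with a cell viability assay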
# Description: SANGER: Inhibition of human ONS-76 cell growth in a cell viability assay.
# NB17 = details: Homo sapiens, NB17;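 also: growth inhibition of NB17 cells, read out with a cell viability assay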
# Description: SANGER: Inhibition of human NB17 cell growth in a cell viability assay.
# GR-ST = details: Homo sapiens, GR-ST
# Description: SANGER: Inhibition of human GR-ST cell growth in a cell viability assay.
smiles,measurement,setting,value
CCN(CC)CCCCNc1ncc2cc(-c3cc(OC)cc(OC)c3)c(NC(=O)NC(C)(C)C)nc2n1 [PD-173074],IC50,A3-KAW,> 2000 nM
same,IC50,NCI-H526,> 2000 nM
same,IC50,KGN,> 2000 nM
same,IC50,BE-13,> 2000 nM
same,IC50,NMC-G1,> 2000 nM
same,IC50,EOL1,330 nM
same,IC50,HH,> 2000 nM
same,IC50,IST-SL1,> 2000 nM
same,IC50,KM12,> 2000 nM
same,IC50,Becker,> 2000 nM
same,IC50,ES8,> 2000 nM
same,IC50,COR-L88,> 2000 nM
same,IC50,TGBC24TKB,> 2000 nM
same,IC50,KP-N-YS,> 2000 nM
same,IC50,MMAC-SF,> 2000 nM
same,IC50,CGTH-W-1,> 2000 nM
same,IC50,ML-2,> 2000 nM
same,IC50,NKM-1,> 2000 nM
same,IC50,KY821,> 2000 nM
same,IC50,KALS-1,> 2000 nM
same,IC50,SK-UT-1,> 2000 nM
same,IC50,LB831-BLC,> 2000 nM
same,IC50,NCI-H1299,> 2000 nM
same,IC50,KU812 cell line,> 2000 nM
same,IC50,SW 962,790 nM
same,IC50,LB1047-RCC,> 2000 nM
same,IC50,GB-1,> 2000 nM
same,IC50,VA-ES-BJ,> 2000 nM
same,IC50,TE-5,> 2000 nM
same,IC50,NCI-H1838,> 2000 nM
same,IC50,MHH-NB-11,> 2000 nM
same,IC50,GI-ME-N,> 2000 nM
same,IC50,ALL-PO,> 2000 nM
same,IC50,A101D,> 2000 nM
same,IC50,EW-18,> 2000 nM
same,IC50,CCRF-CEM,> 2000 nM
same,IC50,NCI-H1581,12.3 nM
same,IC50,LB2241-RCC,> 2000 nM
same,IC50,MPP-89,> 2000 nM
same,IC50,SK-PN-DW,> 2000 nM
same,IC50,KLE,> 2000 nM
same,IC50,D-392MG,> 2000 nM
same,IC50,K562,> 2000 nM
same,IC50,ONS-76,> 2000 nM
same,IC50,NB17,> 2000 nM
same,IC50,GR-ST,> 2000 nM
COc1cc2c(Nc3ccc(NC(=O)c4ccccc4)cc3)ncnc2cc1OCCCN1CCOCC1,IC50,A3-KAW,> 4000 nM
same,IC50,NCI-H526,> 4000 nM
same,IC50,KGN,> 4000 nM
same,IC50,BE-13,844 nM
same,IC50,NMC-G1,> 4000 nM
same,IC50,EOL1,187 nM
same,IC50,HH,> 4000 nM
same,IC50,IST-SL1,1320 nM
same,IC50,KM12,> 4000 nM
same,IC50,Becker,> 4000 nM
same,IC50,ES8,498 nM
same,IC50,COR-L88,> 4000 nM
same,IC50,TGBC24TKB,> 4000 nM
same,IC50,KP-N-YS,> 4000 nM
same,IC50,MMAC-SF,> 4000 nM
same,IC50,CGTH-W-1,2620 nM
same,IC50,ML-2,> 4000 nM
same,IC50,NKM-1,1170 nM
same,IC50,KY821,> 4000 nM
same,IC50,KALS-1,> 4000 nM
same,IC50,SK-UT-1,1820 nM
same,IC50,LB831-BLC,> 4000 nM
same,IC50,NCI-H1299,> 4000 nM
same,IC50,KU812 cell line,> 4000 nM
same,IC50,SW 962,> 4000 nM
same,IC50,LB1047-RCC,> 4000 nM
same,IC50,GB-1,> 4000 nM
same,IC50,VA-ES-BJ,2790 nM
same,IC50,TE-5,> 4000 nM
same,IC50,NCI-H1838,> 4000 nM
same,IC50,MHH-NB-11,> 4000 nM
same,IC50,GI-ME-N,> 4000 nM
same,IC50,ALL-PO,2670 nM
same,IC50,A101D,> 4000 nM
same,IC50,EW-18,> 4000 nM
same,IC50,CCRF-CEM,1870 nM
same,IC50,NCI-H1581,1680 nM
same,IC50,LB2241-RCC,1040 nM
same,IC50,MPP-89,> 4000 nM
same,IC50,SK-PN-DW,> 4000 nM
same,IC50,KLE,> 4000 nM
same,IC50,D-392MG,> 4000 nM
same,IC50,K562,> 4000 nM
same,IC50,ONS-76,> 4000 nM
same,IC50,NB17,> 4000 nM
same,IC50,GR-ST,> 4000 nM
Cn1cnc2c(F)c(Nc3ccc(Br)cc3Cl)c(C(=O)NOCCO)cc21 [SELUMETINIB],IC50,A3-KAW,3910 nM
same,IC50,NCI-H526,> 4000 nM
same,IC50,KGN,> 4000 nM
same,IC50,BE-13,> 4000 nM
same,IC50,NMC-G1,> 4000 nM
same,IC50,EOL1,145 nM
same,IC50,HH,> 4000 nM
same,IC50,IST-SL1,> 4000 nM
same,IC50,KM12,2540 nM
same,IC50,Becker,> 4000 nM
same,IC50,ES8,> 4000 nM
same,IC50,COR-L88,> 4000 nM
same,IC50,TGBC24TKB,> 4000 nM
same,IC50,KP-N-YS,> 4000 nM
same,IC50,CGTH-W-1,> 4000 nM
same,IC50,ML-2,294 nM
same,IC50,NKM-1,386 nM
same,IC50,KY821,107 nM
same,IC50,LB831-BLC,> 4000 nM
same,IC50,NCI-H1299,> 4000 nM
same,IC50,KU812 cell line,212 nM
same,IC50,SW 962,> 4000 nM
same,IC50,LB1047-RCC,> 4000 nM
same,IC50,GB-1,> 4000 nM
same,IC50,VA-ES-BJ,> 4000 nM
same,IC50,TE-5,> 4000 nM
same,IC50,MHH-NB-11,> 4000 nM
same,IC50,GI-ME-N,> 4000 nM
same,IC50,ALL-PO,> 4000 nM
same,IC50,A101D,240 nM
same,IC50,EW-18,> 4000 nM
same,IC50,CCRF-CEM,> 4000 nM
same,IC50,NCI-H1581,> 4000 nM
same,IC50,LB2241-RCC,790 nM
same,IC50,MPP-89,> 4000 nM
same,IC50,SK-PN-DW,> 4000 nM
same,IC50,KLE,> 4000 nM
same,IC50,D-392MG,> 4000 nM
same,IC50,K562,> 4000 nM
same,IC50,ONS-76,245 nM
same,IC50,NB17,> 4000 nM
same,IC50,GR-ST,> 4000 nM
